The source of these data is US12371428B2 (Exelixis, Inc., priority 2019, dated 2025).

Holding throughout (format): cell-based
Assay [1] concerns the target AXL (phospho-AXL, Gas6-stimulated A-172 glioblastoma cells) (Homo sapiens (Human), UniProt P30530). Kind of assay: AXL autophosphorylation ELISA in A-172 cells (Example E). As to conditions: cellular activity; AXL autophosphorylation ELISA in A-172 cells; read-out: Axl IC50. In outline: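 Phospho-AXL was measured by ELISA in lysates of Gas6-stimulated A-172 cells, starved 24 h in serum-free medium and exposed 1 h to an 8-point compound dilution at 0.3% DMSO.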
In general terms: An ELISA detects its analyte on a solid surface through an enzyme-linked reagent.

Assay [2] concerns the target KDR (phospho-KDR, VEGF165-stimulated HUVEC cells) (Homo sapiens (Human), UniProt P35968). Kind of assay: KDR autophosphorylation ELISA in HUVEC cells (Example G). Conditions: cellular activity; KDR autophosphorylation ELISA in HUVEC cells. In outline: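 Read-out: phospho-KDR in cell lysates by DuoSet IC ELISA, normalised between VEGF-stimulated DMSO wells (100%) and unstimulated wells (0%). Human endothelial cells were starved overnight in serum-free medium, exposed to compound for 1 h, and then pulsed with 100 ng/mL VEGF165 for 5 min.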

Assay [3] has as its target Met (phospho-Met, HGF-stimulated PC-3 prostate cancer cells) (Homo sapiens (Human), UniProt P08581). Kind of assay: Met autophosphorylation ELISA in PC-3 cells (Example F). As to conditions: cellular activity; Met autophosphorylation ELISA in PC-3 cells; read-out: c-Met IC50. In outline: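 IC50 values derive from a 4-parameter logistic fit of phospho-Met (panTyr) sandwich ELISA signals in PC-3 lysates, scaled between DMSO and reference-inhibitor wells. Cells, starved 3 h in serum-free medium, had 1 h compound exposure (8 doses, 0.3% DMSO) before 10 min stimulation with 100 ng/mL HGF.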

Assay [4] concerns the target Mer (phospho-Mer, MERTK-transfected 293A cells) (Homo sapiens (Human), UniProt Q12866). Kind of assay: Mer autophosphorylation ELISA in transient transfected 293A cells (Example H). Conditions: cellular activity; Mer autophosphorylation ELISA in transient transfected 293A cells. The essentials: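 IC50 from 4-parameter logistic fit of phospho-Mer levels, quantified by ELISA against a phospho-Mer standard in lysates of MERTK-transfected 293A cells. Cells exposed 1 h to 8-point serial dilutions, serum-free, 0.3% DMSO; controls: DMSO (100%) and reference inhibitor (0%).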

Chain of AXL (phospho-AXL, Gas6-stimulated A-172 glioblastoma cells) (P30530 26-894): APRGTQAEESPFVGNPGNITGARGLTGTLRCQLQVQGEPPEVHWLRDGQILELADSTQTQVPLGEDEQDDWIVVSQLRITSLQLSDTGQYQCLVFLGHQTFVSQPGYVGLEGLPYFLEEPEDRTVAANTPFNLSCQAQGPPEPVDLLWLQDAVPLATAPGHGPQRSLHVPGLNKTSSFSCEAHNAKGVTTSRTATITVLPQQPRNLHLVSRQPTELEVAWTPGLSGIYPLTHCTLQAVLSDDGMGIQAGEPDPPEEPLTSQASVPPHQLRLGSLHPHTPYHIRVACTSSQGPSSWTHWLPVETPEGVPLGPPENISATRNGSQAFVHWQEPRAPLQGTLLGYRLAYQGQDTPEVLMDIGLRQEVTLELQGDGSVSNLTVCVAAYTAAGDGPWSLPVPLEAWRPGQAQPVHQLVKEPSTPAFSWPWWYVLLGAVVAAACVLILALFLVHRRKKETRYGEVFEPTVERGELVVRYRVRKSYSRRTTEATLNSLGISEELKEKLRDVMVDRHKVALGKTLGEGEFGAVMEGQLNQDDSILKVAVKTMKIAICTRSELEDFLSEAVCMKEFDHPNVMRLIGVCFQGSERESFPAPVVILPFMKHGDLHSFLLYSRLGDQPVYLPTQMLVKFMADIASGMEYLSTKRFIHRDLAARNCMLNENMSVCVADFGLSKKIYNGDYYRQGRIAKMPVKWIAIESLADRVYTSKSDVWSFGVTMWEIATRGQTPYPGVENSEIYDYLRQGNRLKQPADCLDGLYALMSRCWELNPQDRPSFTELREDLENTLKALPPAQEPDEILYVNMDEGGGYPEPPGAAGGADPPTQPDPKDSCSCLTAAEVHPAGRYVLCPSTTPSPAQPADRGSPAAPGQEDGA
Chain of Met (phospho-Met, HGF-stimulated PC-3 prostate cancer cells) (P08581 25-1390): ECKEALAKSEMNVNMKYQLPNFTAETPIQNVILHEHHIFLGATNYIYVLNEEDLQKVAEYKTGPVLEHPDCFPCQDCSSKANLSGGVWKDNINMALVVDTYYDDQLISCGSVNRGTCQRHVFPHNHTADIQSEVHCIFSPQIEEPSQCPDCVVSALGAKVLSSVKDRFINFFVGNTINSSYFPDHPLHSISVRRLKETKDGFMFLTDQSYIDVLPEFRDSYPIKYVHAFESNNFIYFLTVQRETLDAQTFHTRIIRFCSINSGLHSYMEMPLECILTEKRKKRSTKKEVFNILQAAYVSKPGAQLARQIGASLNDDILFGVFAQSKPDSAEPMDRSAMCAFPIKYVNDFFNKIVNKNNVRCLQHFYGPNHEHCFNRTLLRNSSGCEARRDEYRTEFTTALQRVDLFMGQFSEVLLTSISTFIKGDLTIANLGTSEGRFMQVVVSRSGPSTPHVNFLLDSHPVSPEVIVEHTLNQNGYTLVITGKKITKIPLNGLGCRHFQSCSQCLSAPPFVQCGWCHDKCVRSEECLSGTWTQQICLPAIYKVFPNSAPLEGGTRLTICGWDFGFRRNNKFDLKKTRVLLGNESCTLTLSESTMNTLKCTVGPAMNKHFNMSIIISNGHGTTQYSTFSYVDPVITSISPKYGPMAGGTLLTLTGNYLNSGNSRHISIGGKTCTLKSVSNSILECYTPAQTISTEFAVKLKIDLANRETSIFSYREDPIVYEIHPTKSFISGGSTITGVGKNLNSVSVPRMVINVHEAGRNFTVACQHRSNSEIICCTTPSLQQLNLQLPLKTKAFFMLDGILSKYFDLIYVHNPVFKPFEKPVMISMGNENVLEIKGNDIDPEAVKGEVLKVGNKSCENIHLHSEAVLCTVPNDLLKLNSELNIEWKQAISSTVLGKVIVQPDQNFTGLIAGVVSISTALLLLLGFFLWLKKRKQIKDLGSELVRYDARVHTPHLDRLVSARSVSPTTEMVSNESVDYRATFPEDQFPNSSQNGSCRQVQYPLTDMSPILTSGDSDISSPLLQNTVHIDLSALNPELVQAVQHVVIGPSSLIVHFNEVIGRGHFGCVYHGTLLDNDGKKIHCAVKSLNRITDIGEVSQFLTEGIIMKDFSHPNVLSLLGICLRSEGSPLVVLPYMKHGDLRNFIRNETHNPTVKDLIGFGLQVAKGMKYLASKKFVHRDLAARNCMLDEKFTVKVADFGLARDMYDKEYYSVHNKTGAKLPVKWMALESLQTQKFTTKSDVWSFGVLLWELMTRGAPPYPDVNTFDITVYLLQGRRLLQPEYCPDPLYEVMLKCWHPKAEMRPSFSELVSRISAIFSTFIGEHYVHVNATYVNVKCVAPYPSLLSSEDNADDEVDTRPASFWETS
Chain of KDR (phospho-KDR, VEGF165-stimulated HUVEC cells) (P35968 20-1356): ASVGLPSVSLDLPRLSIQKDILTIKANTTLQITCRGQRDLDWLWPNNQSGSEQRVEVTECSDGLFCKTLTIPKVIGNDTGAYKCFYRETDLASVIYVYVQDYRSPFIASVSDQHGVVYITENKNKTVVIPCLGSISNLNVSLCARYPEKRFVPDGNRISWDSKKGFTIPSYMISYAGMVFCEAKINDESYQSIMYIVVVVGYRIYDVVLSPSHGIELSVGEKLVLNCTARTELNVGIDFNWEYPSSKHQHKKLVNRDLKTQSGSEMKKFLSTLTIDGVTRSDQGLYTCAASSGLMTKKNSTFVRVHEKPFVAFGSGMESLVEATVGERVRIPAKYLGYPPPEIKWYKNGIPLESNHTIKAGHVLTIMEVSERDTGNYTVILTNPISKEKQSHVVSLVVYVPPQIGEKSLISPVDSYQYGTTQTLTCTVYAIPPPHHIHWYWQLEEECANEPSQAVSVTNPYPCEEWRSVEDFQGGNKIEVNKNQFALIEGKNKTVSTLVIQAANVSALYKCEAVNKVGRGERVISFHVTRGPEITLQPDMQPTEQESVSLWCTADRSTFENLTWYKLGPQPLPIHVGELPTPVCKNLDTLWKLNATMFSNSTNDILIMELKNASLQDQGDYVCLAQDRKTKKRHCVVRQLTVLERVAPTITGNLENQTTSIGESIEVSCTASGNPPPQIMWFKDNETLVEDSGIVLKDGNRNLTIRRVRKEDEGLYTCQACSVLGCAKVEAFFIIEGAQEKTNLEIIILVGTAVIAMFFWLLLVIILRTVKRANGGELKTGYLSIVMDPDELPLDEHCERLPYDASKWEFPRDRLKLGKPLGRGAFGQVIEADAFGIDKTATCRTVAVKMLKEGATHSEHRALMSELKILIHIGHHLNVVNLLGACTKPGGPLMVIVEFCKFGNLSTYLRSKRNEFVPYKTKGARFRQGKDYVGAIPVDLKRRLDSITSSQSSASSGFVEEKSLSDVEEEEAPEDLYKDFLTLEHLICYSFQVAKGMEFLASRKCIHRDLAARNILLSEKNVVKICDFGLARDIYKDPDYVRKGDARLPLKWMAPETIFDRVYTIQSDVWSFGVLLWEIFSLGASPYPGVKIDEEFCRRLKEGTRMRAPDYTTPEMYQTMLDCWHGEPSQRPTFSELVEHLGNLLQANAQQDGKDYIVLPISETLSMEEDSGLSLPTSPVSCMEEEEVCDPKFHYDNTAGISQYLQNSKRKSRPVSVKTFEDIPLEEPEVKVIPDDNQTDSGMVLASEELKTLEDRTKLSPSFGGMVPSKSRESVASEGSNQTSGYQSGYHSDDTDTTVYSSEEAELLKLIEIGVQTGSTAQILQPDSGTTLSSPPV
Chain of Mer (phospho-Mer, MERTK-transfected 293A cells) (Q12866 21-999): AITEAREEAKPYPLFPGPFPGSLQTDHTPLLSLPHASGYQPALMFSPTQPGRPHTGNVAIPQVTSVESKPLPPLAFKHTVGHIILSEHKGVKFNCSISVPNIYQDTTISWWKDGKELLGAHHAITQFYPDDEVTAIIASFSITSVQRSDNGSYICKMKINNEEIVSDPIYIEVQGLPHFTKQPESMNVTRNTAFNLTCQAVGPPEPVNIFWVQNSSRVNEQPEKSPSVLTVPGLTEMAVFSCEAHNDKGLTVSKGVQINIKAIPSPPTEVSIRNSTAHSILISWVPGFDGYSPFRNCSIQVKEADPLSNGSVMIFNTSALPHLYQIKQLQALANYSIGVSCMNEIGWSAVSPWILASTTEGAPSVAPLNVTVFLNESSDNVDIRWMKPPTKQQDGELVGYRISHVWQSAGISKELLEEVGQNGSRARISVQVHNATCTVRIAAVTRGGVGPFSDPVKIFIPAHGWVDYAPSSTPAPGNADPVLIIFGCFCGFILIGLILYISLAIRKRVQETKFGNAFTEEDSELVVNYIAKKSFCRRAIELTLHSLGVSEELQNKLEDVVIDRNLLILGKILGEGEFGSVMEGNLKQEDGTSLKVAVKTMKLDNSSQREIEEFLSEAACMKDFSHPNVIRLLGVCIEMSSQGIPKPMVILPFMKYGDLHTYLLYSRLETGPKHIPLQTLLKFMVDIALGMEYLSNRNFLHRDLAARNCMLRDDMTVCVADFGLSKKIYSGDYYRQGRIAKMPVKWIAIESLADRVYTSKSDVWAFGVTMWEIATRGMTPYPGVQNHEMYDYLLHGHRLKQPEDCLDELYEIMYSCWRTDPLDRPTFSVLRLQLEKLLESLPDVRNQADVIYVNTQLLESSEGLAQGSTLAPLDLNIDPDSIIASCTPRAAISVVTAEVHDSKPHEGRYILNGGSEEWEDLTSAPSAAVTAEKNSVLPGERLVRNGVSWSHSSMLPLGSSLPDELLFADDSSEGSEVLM

As a reminder, the IC50 is the concentration needed to halve the response being measured. Take `COCc1ccc(C(=O)Nc2ccc(Oc3ccnc4cc(OC)c(OC)nc34)c(F)c2)c(=O)n1-c1ccc(F)cc1` [Compound 358, N-[4-[(6,7-dimethoxy-1,5-naphthyridin-4-yl)oxy]-3-fluorophenyl]-1-(4-fluorophenyl)-6-(methoxymethyl)-2-oxopyridine-3-carboxamide]: the concentration for half-maximal inhibition (IC50) in assay [1], in assay [2], in assay [3] and in assay [4] was under 100 nM throughout.
As for `COc1cc2nccc(Oc3ccc(NC(=O)c4cc(C(C)=O)cn(-c5ccc(F)cc5)c4=O)cc3)c2nc1OC` [Compound 359, 5-acetyl-N-[4-[(6,7-dimethoxy-1,5-naphthyridin-4-yl)oxy]phenyl]-1-(4-fluorophenyl)-2-oxopyridine-3-carboxamide], the IC50 in assay [1] is under 100 nM; in assay [2] it was over 300 nM; in assay [3], under 100 nM; in assay [4], under 100 nM.
Regarding `COc1cc2nccc(Oc3ccc(NC(=O)c4c5c(cn(-c6ccc(F)cc6)c4=O)C(=O)CCC5)cc3)c2nc1OC` [Compound 360, N-[4-[(6,7-dimethoxy-1,5-naphthyridin-4-yl)oxy]phenyl]-2-(4-fluorophenyl)-3,8-dioxo-6,7-dihydro-5H-isoquinoline-4-carboxamide], the half-inhibitory concentration (IC50) in assay [1] is under 100 nM; in assay [2], over 300 nM; in assay [3], 100 to 300 nM; in assay [4], under 100 nM.
For the compound `COc1cc2nccc(Oc3ccc(NC(=O)c4cccn(-c5ccc(F)cc5)c4=O)cc3)c2nc1OC` [Compound 361, N-[4-[(6,7-dimethoxy-1,5-naphthyridin-4-yl)oxy]phenyl]-1-(4-fluorophenyl)-2-oxopyridine-3-carboxamide], the IC50 in assay [1], in assay [2], in assay [3] and in assay [4] was under 100 nM throughout.
On to `COc1cc2nccc(Oc3ccc(NC(=O)c4cn5c(c(-c6ccc(F)cc6)c4=O)CCC5)cc3F)c2nc1OC` [Compound 362, N-[4-[(6,7-dimethoxy-1,5-naphthyridin-4-yl)oxy]-3-fluorophenyl]-8-(4-fluorophenyl)-7-oxo-2,3-dihydro-1H-indolizine-6-carboxamide], for which the half-inhibitory concentration (IC50) in assay [1], in assay [2], in assay [3] and in assay [4] was under 100 nM each time.
For the compound `COc1cc2nccc(Oc3ccc(NC(=O)c4cn5c(c(-c6ccc(F)cc6)c4=O)CCCC5)cc3F)c2nc1OC` [Compound 363, N-[4-[(6,7-dimethoxy-1,5-naphthyridin-4-yl)oxy]-3-fluorophenyl]-1-(4-fluorophenyl)-2-oxo-6,7,8,9-tetrahydroquinolizine-3-carboxamide], the IC50 in assay [1], in assay [2], in assay [3] and in assay [4] was under 100 nM throughout.
As to `CNc1nccc2c(Oc3ccc(NC(=O)c4cnc(C)c(-c5ccc(F)cc5)c4O)cc3)ccnc12` [Compound 387, 5-(4-fluorophenyl)-4-hydroxy-6-methyl-N-[4-[[8-(methylamino)-1,7-naphthyridin-4-yl]oxy]phenyl]pyridine-3-carboxamide], the IC50 in assay [1], in assay [2], in assay [3] and in assay [4] was under 100 nM in each case.
Consider `COc1cc2nccc(Oc3ccc(NC(=O)c4cnc(C)c(-c5ccc(F)cc5F)c4O)cc3F)c2nc1OC` [Compound 395, 5-(2,4-difluorophenyl)-N-[4-[(6,7-dimethoxy-1,5-naphthyridin-4-yl)oxy]-3-fluorophenyl]-4-hydroxy-6-methylpyridine-3-carboxamide], for which the IC50 in assay [1], in assay [2], in assay [3] and in assay [4] was under 100 nM each time.
Consider `COc1cc2nccc(Oc3ccc(NC(=O)c4cn(C)c(C)c(-c5ccc(F)cc5F)c4=O)cc3)c2nc1OC` [Compound 396, 5-(2,4-difluorophenyl)-N-[4-[(6,7-dimethoxy-1,5-naphthyridin-4-yl)oxy]phenyl]-1,6-dimethyl-4-oxopyridine-3-carboxamide], for which the IC50 in assay [1], in assay [2], in assay [3] and in assay [4] was under 100 nM each time.
As to `Cc1cc2nccc(Oc3ccc(NC(=O)c4c(C)nc(C)c(-c5ccc(F)cc5)c4O)cc3F)c2nc1F` [Compound 445, N-[3-fluoro-4-[(6-fluoro-7-methyl-1,5-naphthyridin-4-yl)oxy]phenyl]-5-(4-fluorophenyl)-4-hydroxy-2,6-dimethylpyridine-3-carboxamide], the concentration for half-maximal inhibition (IC50) in assay [1], in assay [2], in assay [3] and in assay [4] was under 100 nM in each case.
As for `COCc1nc(C)c(-c2ccc(F)cc2)c(O)c1C(=O)Nc1ccc(Oc2ccnc3cc(C)c(F)nc23)c(F)c1` [Compound 446, N-[3-fluoro-4-[(6-fluoro-7-methyl-1,5-naphthyridin-4-yl)oxy]phenyl]-5-(4-fluorophenyl)-4-hydroxy-2-(methoxymethyl)-6-methylpyridine-3-carboxamide], the half-maximal inhibitory concentration (IC50) in assay [1], in assay [2], in assay [3] and in assay [4] was under 100 nM each time.
Turning to `C=C(C)c1cnc2c(Oc3ccc(NC(=O)c4c(C)nc(C)c(-c5ccc(F)cc5C)c4O)cc3F)ccnc2c1` [Compound 461, 5-(4-fluoro-2-methylphenyl)-N-[3-fluoro-4-[(7-prop-1-en-2-yl-1,5-naphthyridin-4-yl)oxy]phenyl]-4-hydroxy-2,6-dimethylpyridine-3-carboxamide], the IC50 in assay [1], in assay [2], in assay [3] and in assay [4] was under 100 nM throughout.
Take `C=C(C)c1cnc2c(Oc3ccc(NC(=O)c4cnc(C)n(-c5ccc(F)cc5)c4=O)cc3)ccnc2c1` [Compound 462, 1-(4-fluorophenyl)-2-methyl-6-oxo-N-[4-[(7-prop-1-en-2-yl-1,5-naphthyridin-4-yl)oxy]phenyl]pyrimidine-5-carboxamide]: the IC50 in assay [1], in assay [2], in assay [3] and in assay [4] was under 100 nM each time.
On to `C=C(C)c1cnc2c(Oc3ccc(NC(=O)c4n[nH]c(C)c(-c5ccc(F)cc5C)c4=O)cc3F)ccnc2c1` [Compound 463, 5-(4-fluoro-2-methylphenyl)-N-[3-fluoro-4-[(7-prop-1-en-2-yl-1,5-naphthyridin-4-yl)oxy]phenyl]-6-methyl-4-oxo-1H-pyridazine-3-carboxamide], for which the half-inhibitory concentration (IC50) in assay [1], in assay [2], in assay [3] and in assay [4] was under 100 nM in each case.
Consider `C=C(C)c1cnc2c(Oc3ccc(NC(=O)c4n[nH]c(C)c(-c5ccc(F)cc5)c4=O)cc3F)ccnc2c1` [Compound 464, 5-(4-fluorophenyl)-N-[3-fluoro-4-[(7-prop-1-en-2-yl-1,5-naphthyridin-4-yl)oxy]phenyl]-6-methyl-4-oxo-1H-pyridazine-3-carboxamide], for which the IC50 in assay [1], in assay [2], in assay [3] and in assay [4] was under 100 nM in each case.
For `C=C(C)c1cnc2c(Oc3ccc(NC(=O)c4cnc(C)n(-c5ccc(F)cc5)c4=O)cc3F)ccnc2c1` [Compound 465, 1-(4-fluorophenyl)-N-[3-fluoro-4-[(7-prop-1-en-2-yl-1,5-naphthyridin-4-yl)oxy]phenyl]-2-methyl-6-oxopyrimidine-5-carboxamide], the IC50 is under 100 nM in assay [1], 100 to 300 nM in assay [2], under 100 nM in assay [3] and under 100 nM in assay [4].
For the compound `C=C(C)c1cnc2c(Oc3ccc(NC(=O)c4c(C)nc(C)n(-c5ccc(F)cc5)c4=O)cc3F)ccnc2c1` [Compound 466, 1-(4-fluorophenyl)-N-[3-fluoro-4-[(7-prop-1-en-2-yl-1,5-naphthyridin-4-yl)oxy]phenyl]-2,4-dimethyl-6-oxopyrimidine-5-carboxamide], the IC50 in assay [1], in assay [2], in assay [3] and in assay [4] was under 100 nM each time.
`C=C(C)c1cnc2c(Oc3ccc(NC(=O)c4c(C)nc(C)n(-c5ccc(F)cc5)c4=O)cc3)ccnc2c1` [Compound 467, 1-(4-fluorophenyl)-2,4-dimethyl-6-oxo-N-[4-[(7-prop-1-en-2-yl-1,5-naphthyridin-4-yl)oxy]phenyl]pyrimidine-5-carboxamide]: the IC50 in assay [1], in assay [2], in assay [3] and in assay [4] was under 100 nM throughout.
